This is an account of results in patent publication US8809303B2, “Methods of regulating actin cytoskeletal rearrangement and intercellular gap formation” (The University of North Carolina at Chapel Hill, priority 2008, dated 2014).

Molecules are shown by their SMILES.

Common to all, as to type: cell-based
In series [1] the test system is human pulmonary microvascular endothelial cells (HMVECs). Put plainly: Simulated cold IRI: cold ischemia in 4° C. PERFADEX, gaps in monolayer. To be noted: CRX-526 pre-incubation; 4 hours of cold ischemia in 4° C. PERFADEX; FIG. 2A, 2B. The method, then: FIG. 2A is a series of photographs of (from left to right) human pulmonary microvascular endothelial cells (HMVECs) in warm (37° C.) cell culture media (Control), of HMVECs after four hours of cold ischemia (CI) in 4° C. cell culture media (Media 4 hr CI), of HMVECs after four hours of cold ischemia in 4° C. PERFADEX™ (Vitrolife, Kungsbacka, Sweden) pulmonary preservation solution (Vehicle 4 hr CI), and of HMVECs that had been pre-incubated with CRX-526 and undergone four hours of cold ischemia in 4° C. PERFADEX™ (Vitrolife, Kungsbacka, Sweden) with CRX-526 (CRX-526 4 hr CI). The photographs are representative of 9 images taken for each set of conditions.
FIG. 2B is a graph of the % area of gaps in the monolayer of human pulmonary microvascular endothelial cells (HMVECs) in cell culture media (Media), vehicle (i.e., PERFADEX™ (Vitrolife, Kungsbacka, Sweden)) or in vehicle after a 1 hour pre-treatment with CRX-526 and following either four hours of cold ischemia (4 hr CI), 1 hour of warm ischemia (WI), or following 1 hour of warm ischemia and 15 min, 1 hr, or 4 hr of reperfusion (15 min rep, 1 hr rep, and 4 hr rep, respectively). Data for the HMVECs in cell culture media without vehicle is shown in the open bars. […] The % gap area was quantified by MetaMorph® software (MDS Analytical Technologies, Inc., Sunnyvale, Calif., United States of America). *=p<0.01. […]

The test system is the same in series [2]. In words: Cell culture model of warm lung IRI: simulated warm ischemia and reperfusion, phalloidin staining and image analysis. Particulars: 1 μg/mL CRX-526 vs vehicle. The method, then: An in vitro normothermic (37° C.) model of IRI employing nutrient depletion in 100% oxygen to model ischemia was developed, with reperfusion modeled by supplying fresh medium to culture dishes in sealed PLEXIGLAS® containers. Human pulmonary microvascular endothelial cells (HMVECs) (Cambrex Bio Science, Walkersville, Md., United States of America) maintained in CLONETICS® EGM-2MV BULLETKITS® (Cambrex Bio Science, Walkersville, Md., United States of America), at 37° C. in a humidified incubator in 5% CO2 were seeded at 2000 cells/cm^2 on collagen-coated 30 mm diameter glass bottom dish coverslips (Mattek Corp., Ashland, Mass., United States of America) and grown until 100% confluent. Sealed PLEXIGLAS® containers housing culture dishes at 37° C. were ventilated with 95% O2/5% CO2. To model warm ischemia (WI), cell medium was suddenly replaced with 2 mL nutrient-depleted, pyrogen-free clinical grade Ringer's lactate. Dishes were pre-treated with 1 μg/mL CRX-526 (GlaxoSmithKline, Duluth, Minn., United States of America) or vehicle (2% glycerin), one hour before WI. CRX-526 or vehicle was added whenever medium was changed. After 1 hour of simulated WI, Ringer's lactate was replaced with EGM2-MV pyrogen-free medium to simulate reperfusion, ventilating the chamber with 5% CO2 in room air. Dishes were removed in triplicate during WI and reperfusion, and immediately fixed in 4% paraformaldehyde for phalloidin staining. Cells with inhibitor or vehicle maintained in EGM2-MV medium at 37° C. in humidified 5% CO2 incubator served as controls. Culture medium was changed at the same time that medium was changed in experimental dishes. Probes inserted through sealed ports continuously recorded temperature, and pH in a representative dish in the PLEXIGLAS® box using voltmeters with data output recorded by PicoRecorded software (Pico Technology, St. Neots, United Kingdom).
HMVECs were fixed in 4% paraformaldehyde for 10 minutes at room temperature and washed 3 times with PBS. Cells were incubated for 1 hour with a 1/100 dilution of ALEXAFLOR® 568 phalloidin (Invitrogen, Carlsbad, Calif., United States of America) in PBS with 1% BSA and 0.05% Tween-20. Coverslips stained for F-actin were immediately examined with a Leica DMIRB Inverted Fluorescence/DIC microscope (Leica Microsystems, Inc., Bannockburn, Ill., United States of America) at 20× and 40× magnification to evaluate changes in cell shape and F-actin cytoskeleton. For each dish, three pictures were taken of contiguous fields near the center of the dish at 40× with a Kodak (Rochester, N.Y., United States of America) digital camera at the same exposure time. A masked observer assessed actin stress fiber pattern of each cell as normal or abnormal. Quantitative analysis of gap area was performed using METAMORPH® software (MDS Analytical Technologies, Inc., Sunnyvale, Calif., United States of America).
As described in Example 1, HMVECs grown to confluence on P30 dishes with integral cover slips were incubated with 1 μg/mL CRX-526 or vehicle, ventilated with 95% O2/5% CO2. Media was replaced with warm (37° C.)
Ringer's lactate and ventilated with 100% O2 to simulate warm ischemia. One hour later, Ringer's lactate was replaced with warm cell culture media, and chambers were ventilated with 95% room air/5% CO2 to simulate reperfusion. […]

For series [3] the test system is unchanged. In words: Determination of viability for cell culture experiments (LDH activity, CytoTox96 assay) during simulated IRI. Particulars: controls vs treated groups, all time points of simulated IRI. The protocol: In separate experiments performed in triplicate, HMVECs grown to confluence on P35 dishes underwent simulated IRI. At the same time points, cells and cell culture media or Ringer's lactate were assessed for lactate dehydrogenase (LDH) activity using the CytoTox96 Non-Radioactive Cytotoxicity Assay (Promega, Madison, Wis., United States of America) following the manufacturer's instructions. Control samples were also taken at time zero and 24 hours to assess cell viability apart from the experimental model. Culture medium and Ringer's lactate were used as background controls to normalize the absorbance value from the other samples. Cytotoxicity was calculated as media LDH activity divided by total LDH activity (cell pellet plus media). Viability was the inverse and expressed as percent viability at each time point.

`CCCCCCCCCCC[C@H](CC(=O)N[C@H]1[C@H](OC[C@H](NC(=O)C[C@@H](CCCCCCCCCCC)OC(=O)CCCCC)C(=O)O)O[C@H](CO)[C@@H](OP(=O)(O)O)[C@@H]1OC(=O)C[C@@H](CCCCCCCCCCC)OC(=O)CCCCC)OC(=O)CCCCC` [CRX-526]: the gaps in monolayer result in series [1] was “much less obvious”. The “peripheral orientation of actin” value in series [2] (after 15 minutes simulated reperfusion, FIG. 1C) is listed as “significantly reduced”; in series [2] (following 60 minutes of WI, FIG. 1C) it was “significantly reduced”. For the same compound, the “recovery of monolayer confluence” value in series [2] (after simulated reperfusion, FIG. 1B) is listed as “regained confluence more quickly”. The “area of monolayer gaps” value in series [2] (during simulated warm ischemia, FIG. 1B) is reported as “significantly reduced”. Further, in series [2] (monolayers in simulated warm IRI, FIG. 1C), the “percentage of cells with altered actin cytoskeleton” value is “decreased”. The “cell viability, quantified by LDH assay” value in series [3] is reported as “equivalent”.
